What was measured:
recombinant human CK2 = recombinant human CK2 (Homo sapiens (Human), UniProt P68400); assay: CK2 assay (cell-free, 33P-ATP filter plate); assay type: biochemical; settings: 500 nM compound, cell-free assay; read-out: CK2: % inh 500 nM
[1] = system: HCT-116 human colorectal carcinoma cells; assay: Cell-proliferation assay using Alamar Blue dye; assay type: cell-based; settings: Homo sapiens, HCT-116, second HCT-116 column (c8); read-out: HCT-116 (uM) cell proliferation modulatory activity;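 further: cells exposed to compound for about 4 days, then Alamar Blue added and dye fluorescence read after about 4 h, compared with medium-only control wells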
recombinant human PIM1 = recombinant human PIM1 (Homo sapiens (Human), UniProt P11309); assay: PIM-1 kinase activity in cell-free in vitro assay; assay type: biochemical; settings: cell-free assay; for inhibition at 0.5 µM: 500 nM compound, read-out: PIM-1: % inh 500 nM
K-562 = assay: Cell proliferation modulatory activity, K-562; assay type: cell-based; settings: Homo sapiens, K562; K-562 cells
MV-4-11 = assay: Cell proliferation modulatory activity, MV-4-11; assay type: cell-based; settings: Homo sapiens, MV4-11; MV-4-11 cells

recombinant human PIM1, sequence (P11309 whole entry): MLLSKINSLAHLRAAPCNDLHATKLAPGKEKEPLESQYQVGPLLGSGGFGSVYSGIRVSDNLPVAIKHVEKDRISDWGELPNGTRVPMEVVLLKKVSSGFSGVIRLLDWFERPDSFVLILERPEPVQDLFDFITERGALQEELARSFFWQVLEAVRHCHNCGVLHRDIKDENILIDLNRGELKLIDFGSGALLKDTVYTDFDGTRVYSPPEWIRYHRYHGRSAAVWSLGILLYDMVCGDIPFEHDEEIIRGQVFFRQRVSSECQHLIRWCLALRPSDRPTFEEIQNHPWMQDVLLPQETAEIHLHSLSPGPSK
recombinant human CK2, sequence (P68400 whole entry): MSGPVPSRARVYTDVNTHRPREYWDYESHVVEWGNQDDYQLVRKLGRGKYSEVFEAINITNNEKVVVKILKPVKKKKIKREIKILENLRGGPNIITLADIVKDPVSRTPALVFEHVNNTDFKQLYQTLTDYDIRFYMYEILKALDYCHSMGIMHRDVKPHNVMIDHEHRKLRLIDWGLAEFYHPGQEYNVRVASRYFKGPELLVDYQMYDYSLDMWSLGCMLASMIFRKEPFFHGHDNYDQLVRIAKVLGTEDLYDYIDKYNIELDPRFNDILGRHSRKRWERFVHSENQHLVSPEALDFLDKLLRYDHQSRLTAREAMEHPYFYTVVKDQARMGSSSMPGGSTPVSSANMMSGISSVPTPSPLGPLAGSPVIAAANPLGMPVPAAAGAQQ
recombinant human CK2, sequence (P67870 whole entry partner): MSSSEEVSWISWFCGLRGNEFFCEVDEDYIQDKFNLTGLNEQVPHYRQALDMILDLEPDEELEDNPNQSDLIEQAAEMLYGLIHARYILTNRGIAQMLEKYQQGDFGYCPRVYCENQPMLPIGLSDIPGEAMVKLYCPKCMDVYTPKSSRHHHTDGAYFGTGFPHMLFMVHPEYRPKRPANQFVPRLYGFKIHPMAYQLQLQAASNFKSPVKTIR

Row | Structure (SMILES) | inhibition at 0.5 µM (recombinant human CK2) | IC50 [1] | inhibition at 0.5 µM (recombinant human PIM1) | IC50 (K-562) | IC50 (MV-4-11) | IC50 (recombinant human PIM1)
1 | CC(C)(C)OC(=O)NC1CCN(c2nc3cc(C#N)ccc3c3sccc23)C1 (stereo not drawn) | 11% | > 10 µM | 10% | > 10 µM | > 10 µM | 
2 | N#Cc1ccc2c(c1)nc(N1CCC(N)C1)c1ccsc12 (stereo not drawn) | -2.47% | > 10 µM | 9.1% | > 10 µM | > 10 µM | 
3 | CN1CCC(Nc2nc3cc(C#N)ccc3c3sccc23)CC1 | -8.22% | 3.44 µM | 59.1% | > 10 µM | 7.52 µM | 1.03 µM
4 | CC(C)(C)OC(=O)N1CCN(c2nc3cc(C#N)ccc3c3sccc23)CC1 | -35% | > 10 µM | -30.9% | > 10 µM | > 10 µM | 
5 | N#Cc1ccc2c(c1)nc(N1CCNCC1)c1ccsc12 | -27.3% | 4.09 µM | 7.88% | > 10 µM | 9.33 µM | 
6 | CC(C)(C)OC(=O)NCCCNc1nc2cc(C#N)ccc2c2sccc12 | -11.5% | > 10 µM | -30.8% | > 10 µM | > 10 µM | 
7 | N#Cc1ccc2c(c1)nc(NCCCN)c1ccsc12 | 61.4% | 2.51 µM | 76.6% | > 10 µM | > 10 µM | 0.129 µM
8 | CC(C)(C)OC(=O)N1CCCC1CNc1nc2cc(C#N)ccc2c2sccc12 (stereo not drawn) | -35.2% | > 10 µM | -14.7% | > 10 µM | > 10 µM | 
9 | N#Cc1ccc2c(c1)nc(NCC1CCCN1)c1ccsc12 (stereo not drawn) | -23.8% | 2.73 µM | 14.1% | > 10 µM | 2.44 µM | 
10 | CC(C)(C)OC(=O)N1CCCC1CCNc1nc2cc(C#N)ccc2c2sccc12 (stereo not drawn) | -22.4% | > 10 µM | -13% | > 10 µM | > 10 µM | 
11 | N#Cc1ccc2c(c1)nc(NCCC1CCCN1)c1ccsc12 (stereo not drawn) | 37.1% | 1.87 µM | 36.2% | > 10 µM | 2.82 µM | 
12 | CN(c1nc2cc(C#N)ccc2c2sccc12)C(C1CC1)C1CC1 | -17.1% | > 10 µM | -19% | > 10 µM | > 10 µM | 
13 | CN(C)CCCN(C)c1nc2cc(-c3nnn[nH]3)ccc2c2sccc12 | 60.1% | > 10 µM | 70.5% | > 10 µM | > 10 µM | 0.221 µM
14 | CNC(=O)c1ccc2c(c1)nc(NCCN(C)C)c1ccsc12 | 8.24% | > 10 µM | 5.73% | > 10 µM | 0.535 µM | 
15 | CN(C)CCNc1nc2cc(C(=O)NC3CC3)ccc2c2sccc12 | 1.39% | 2.34 µM | 13.7% | 1.89 µM | > 10 µM | 
16 | CN(C)CCNc1nc2cc(C(=O)N(C)C)ccc2c2sccc12 | 11.8% | > 10 µM | -3.56% | > 10 µM | 0.999 µM | 
17 | CN(C)CCNc1nc2cc(C(N)=O)ccc2c2sccc12 | 15.6% | 4.29 µM | 34% | 0.198 µM | 0.402 µM | 
18 | CN1CCC(Nc2nc3cc(-c4nnn[nH]4)ccc3c3sccc23)CC1 | 1.28% | > 10 µM | 83.9% | > 10 µM | > 10 µM | 0.161 µM
19 | CN1CCCC(Nc2nc3cc(-c4nnn[nH]4)ccc3c3sccc23)C1 (stereo not drawn) | 31.4% | > 10 µM | 90.9% | > 10 µM | 0.658 µM | 0.109 µM
20 | CC1(C)CC(Nc2nc3cc(-c4nnn[nH]4)ccc3c3sccc23)CC(C)(C)N1 | -5.33% | > 10 µM | 32.7% | > 10 µM | > 10 µM | 
21 | CCN1CCCC1CNc1nc2cc(-c3nnn[nH]3)ccc2c2sccc12 (stereo not drawn) | 55.7% | 0.397 µM | 103% | 0.175 µM | 0.174 µM | 0.098 µM
22 | NC1CCN(c2nc3cc(-c4nnn[nH]4)ccc3c3sccc23)C1 (stereo not drawn) | 30.8% | > 10 µM | 63.6% | > 10 µM | 1.15 µM | 0.489 µM
23 | c1cc2c(N3CCC(N4CCCC4)CC3)nc3cc(-c4nnn[nH]4)ccc3c2s1 | 38.6% | > 10 µM | 90% | > 10 µM | 1.07 µM | 0.119 µM
